Assay results: patent publication US20080107619A1, “Carbohydrate based cellulase inhibitors as feeding stimulants in termites” (University of Florida Research Foundation, Inc., priority 2006, published 2008)
“Also recorded” adds a separate entry of the source.

System: R. flavipes worker termites
Test: No-choice Petri dish in vivo feeding bioassay (feeding and mortality, 24 days)
Conditions: for Normalized Avg. Totals: relative to control [0] average; for maximum mortality: after 24 days
Procedure: R. flavipes colonies were collected from the University of Florida campus during spring and summer 2006. Colonies were maintained in sealed plastic boxes (30×24×10 cm) at 22±1° C. and 69±1% RH. Colonies were maintained without soil and provisioned with moist brown paper towels and wood shims. Colonies that were acclimated under the above conditions for <2 months are referred to as “field colonies”, while those held for >6 months are referred to as “lab colonies”. Unless otherwise stated, all studies reported here were run with lab colonies.
Two different termite colonies were used. A lab colony was used in bioassays that tested the effects of CBI and FMG; this was the same colony used in cellulase optimization studies, cellulase distribution studies, and for […] determination. The other colony was a field colony, which was used to repeat the FMG assay along side FMCB. The no-choice feeding bioassay was derived from a previously-developed and slightly modified caste differentiation assay reported by M. E. Scharf, et al. in “Caste differentiation responses of two sympatric Reticulitermes termite species to juvenile hormone homologs and synthetic juvenoids in two laboratory assays.” Insectes Soc. […] Acad. Sci. USA, 103 (2006) 4499-504.
Prior to treatment, paper disks 30 were weighed. Treatments and controls were held in complete darkness at approximately 26±1° C. and 69±1% RH. The inhibitor concentrations tested were 75, 50, 25, 10, 5, 1, 0.5, and 0.1 mM (approximately […] wt/wt). For each inhibitor, paper disks were treated with 50 μl of a given concentration. Control disks received 50 μl methanol alone. Treated papers were allowed to dry in a fume hood for 30 min before placing in dishes, wetting with 25 μl water, and adding 15 termites.
Termite feeding on the filter papers was readily observable and quantifiable from the bioassays. Average feeding through the entire bioassay was summed within each replicate and calculated as a percentage of feeding relative to untreated controls, then averaged across replicates.
The experimental design consisted of three replicate dishes per concentration. All assays were carried out for a total of 24 days. Termite mortality and filter paper moisture were monitored every 4th day. Every 8th day, old paper disks were replaced with new ones. These new filter paper disks were treated with identical inhibitor concentrations. The removed filter paper disks 30, showing the results of termite feeding (FIG. 6), were dried and re-weighed. At the end of each assay, data were summarized as cumulative feeding per live termite and cumulative termite mortality. Data were analyzed by non-parametric t-tests (p<0.05) with commercially-available software for use in statistical analysis, designed by SAS Institute, Cary, N.C.
FIGS. 7A-7F provide graphic data on in vivo feeding bioassays conducted with the carbohydrate-based cellulase inhibitors to assess the impact on termite feeding and survivorship. Feeding results are expressed as the cumulative percent of untreated controls through 24 days. Mortality results are expressed as percent mortality after 24 days. […] Error bars represent standard error of the mean.

[1] = 0.1 mM test conc., 1st ROUND (lab colony)
[2] = 0.1 mM test conc., 2nd ROUND (field colony)
[3] = 0.5 mM test conc., 1st ROUND (lab colony)
[4] = 0.5 mM test conc., 2nd ROUND (field colony)
[5] = 1 mM test conc., 1st ROUND (lab colony)
[6] = 1 mM test conc., 2nd ROUND (field colony)
[7] = 5 mM test conc., 1st ROUND (lab colony)
[8] = 5 mM test conc., 2nd ROUND (field colony)
[9] = 10 mM test conc., 1st ROUND (lab colony)
[10] = 10 mM test conc., 2nd ROUND (field colony)
[11] = 25 mM test conc., 1st ROUND (lab colony)
[12] = 25 mM test conc., 2nd ROUND (field colony)
[13] = 50 mM test conc., 1st ROUND (lab colony)
[14] = 50 mM test conc., 2nd ROUND (field colony)
[15] = 75 mM test conc., 1st ROUND (lab colony)
[16] = 75 mM test conc., 2nd ROUND (field colony)

For fluoromethyl glucose [FMG], which “Average Feeding in mg per Live Termite (std. err.) days 1-8” value [1] is on record?
The value was 0.52 (0.03) mg per Live Termite.

What about the “Average Feeding in mg per Live Termite (std. err.) days 9-16” value [1] of the same substance?
Its value is 0.48 (0.10) mg per Live Termite.

What about the “Average Feeding in mg per Live Termite (std. err.) days 17-24” value [1] of the same substance?
The value was 0.45 (0.04) mg per Live Termite.

What about the “Normalized Avg. Totals” value [1] of the same substance?
The value was 0.98.

And the “Average Feeding in mg per Live Termite (std. err.) days 1-8” value [2]?
Its value is 0.20 (0.04) mg per Live Termite.

And the “Average Feeding in mg per Live Termite (std. err.) days 9-16” value [2]?
The value was 0.33 (0.05) mg per Live Termite.

And the “Average Feeding in mg per Live Termite (std. err.) days 17-24” value [2]?
Its value is 0.48 (0.07) mg per Live Termite.

And the “Normalized Avg. Totals” value [2]?
Its value is 0.92.

And the “Average Feeding in mg per Live Termite (std. err.) days 1-8” value [3]?
The value was 0.57 (0.08) mg per Live Termite.

What about the “Average Feeding in mg per Live Termite (std. err.) days 9-16” value [3] of the same substance?
Its value is 0.54 (0.07) mg per Live Termite.

And the “Average Feeding in mg per Live Termite (std. err.) days 17-24” value [3]?
The value was 0.44 (0.07) mg per Live Termite.

What about the “Normalized Avg. Totals” value [3] of the same substance?
Its value is 0.96.

And the “Average Feeding in mg per Live Termite (std. err.) days 1-8” value [4]?
The value was 0.34 (0.01) mg per Live Termite.

What about the “Average Feeding in mg per Live Termite (std. err.) days 9-16” value [4] of the same substance?
The value was 0.34 (0.03) mg per Live Termite.

What about the “Average Feeding in mg per Live Termite (std. err.) days 17-24” value [4] of the same substance?
Its value is 0.47 (0.03) mg per Live Termite.

And the “Normalized Avg. Totals” value [4]?
The value was 1.03.

And the “Average Feeding in mg per Live Termite (std. err.) days 1-8” value [5]?
The value was 0.55 (0.02) mg per Live Termite.

And the “Average Feeding in mg per Live Termite (std. err.) days 9-16” value [5]?
The value was 0.58 (0.03) mg per Live Termite.

What about the “Average Feeding in mg per Live Termite (std. err.) days 17-24” value [5] of the same substance?
Its value is 0.51 (0.03) mg per Live Termite.

And the “Normalized Avg. Totals” value [5]?
Its value is 0.92.

What about the “Average Feeding in mg per Live Termite (std. err.) days 1-8” value [6] of the same substance?
Its value is 0.36 (0.04) mg per Live Termite.

And the “Average Feeding in mg per Live Termite (std. err.) days 9-16” value [6]?
Its value is 0.38 (0.01) mg per Live Termite.

What about the “Average Feeding in mg per Live Termite (std. err.) days 17-24” value [6] of the same substance?
Its value is 0.39 (0.06) mg per Live Termite.

What about the “Normalized Avg. Totals” value [6] of the same substance?
Its value is 1.04.

What about the “Average Feeding in mg per Live Termite (std. err.) days 1-8” value [7] of the same substance?
Its value is 0.39 (0.06) mg per Live Termite.

What about the “Average Feeding in mg per Live Termite (std. err.) days 9-16” value [7] of the same substance?
Its value is 0.58 (0.07) mg per Live Termite.

What about the “Average Feeding in mg per Live Termite (std. err.) days 17-24” value [7] of the same substance?
The value was 0.39 (0.07) mg per Live Termite.

What about the “Normalized Avg. Totals” value [7] of the same substance?
The value was 0.72.

And the “Average Feeding in mg per Live Termite (std. err.) days 1-8” value [8]?
Its value is 0.29 (0.02) mg per Live Termite.

And the “Average Feeding in mg per Live Termite (std. err.) days 9-16” value [8]?
Its value is 0.29 (0.03) mg per Live Termite.

And the “Average Feeding in mg per Live Termite (std. err.) days 17-24” value [8]?
The value was 0.43 (0.05) mg per Live Termite.

And the “Normalized Avg. Totals” value [8]?
Its value is 0.92.

And the “Average Feeding in mg per Live Termite (std. err.) days 1-8” value [9]?
Its value is 0.32 (0.07) mg per Live Termite.

And the “Average Feeding in mg per Live Termite (std. err.) days 9-16” value [9]?
Its value is 0.38 (0.09) mg per Live Termite.

And the “Average Feeding in mg per Live Termite (std. err.) days 17-24” value [9]?
The value was 0.41 (0.05) mg per Live Termite.

And the “Normalized Avg. Totals” value [9]?
Its value is 0.93.

What about the “Average Feeding in mg per Live Termite (std. err.) days 1-8” value [10] of the same substance?
The value was 0.17 (0.02) mg per Live Termite.

And the “Average Feeding in mg per Live Termite (std. err.) days 9-16” value [10]?
Its value is 0.25 (0.02) mg per Live Termite.

What about the “Average Feeding in mg per Live Termite (std. err.) days 17-24” value [10] of the same substance?
The value was 0.45 (0.04) mg per Live Termite.

And the “Normalized Avg. Totals” value [10]?
The value was 0.79.

And the “Average Feeding in mg per Live Termite (std. err.) days 1-8” value [11]?
The value was 0.27 (0.04) mg per Live Termite.

What about the “Average Feeding in mg per Live Termite (std. err.) days 9-16” value [11] of the same substance?
The value was 0.22 (0.05) mg per Live Termite.

What about the “Average Feeding in mg per Live Termite (std. err.) days 17-24” value [11] of the same substance?
Its value is 0.34 (0.02) mg per Live Termite.

What about the “Normalized Avg. Totals” value [11] of the same substance?
The value was 0.83.

And the “Average Feeding in mg per Live Termite (std. err.) days 1-8” value [12]?
Its value is 0.25 (0.04) mg per Live Termite.

What about the “Average Feeding in mg per Live Termite (std. err.) days 9-16” value [12] of the same substance?
Its value is 0.31 (0.05) mg per Live Termite.

What about the “Average Feeding in mg per Live Termite (std. err.) days 17-24” value [12] of the same substance?
Its value is 0.40 (0.02) mg per Live Termite.

What about the “Normalized Avg. Totals” value [12] of the same substance?
The value was 0.87.

What about the “Average Feeding in mg per Live Termite (std. err.) days 1-8” value [13] of the same substance?
The value was 0.30 (0.01) mg per Live Termite.

What about the “Average Feeding in mg per Live Termite (std. err.) days 9-16” value [13] of the same substance?
The value was 0.34 (0.01) mg per Live Termite.

What about the “Average Feeding in mg per Live Termite (std. err.) days 17-24” value [13] of the same substance?
Its value is 0.34 (0.02) mg per Live Termite.

What about the “Normalized Avg. Totals” value [13] of the same substance?
The value was 0.99.

What about the “Average Feeding in mg per Live Termite (std. err.) days 1-8” value [14] of the same substance?
Its value is 0.25 (0.02) mg per Live Termite.

And the “Average Feeding in mg per Live Termite (std. err.) days 9-16” value [14]?
Its value is 0.28 (0.03) mg per Live Termite.

And the “Average Feeding in mg per Live Termite (std. err.) days 17-24” value [14]?
Its value is 0.29 (0.01) mg per Live Termite.

What about the “Normalized Avg. Totals” value [14] of the same substance?
Its value is 0.74.

And the “Average Feeding in mg per Live Termite (std. err.) days 1-8” value [15]?
The value was 0.17 (0.03) mg per Live Termite.

And the “Average Feeding in mg per Live Termite (std. err.) days 9-16” value [15]?
Its value is 0.21 (0.02) mg per Live Termite.

What about the “Average Feeding in mg per Live Termite (std. err.) days 17-24” value [15] of the same substance?
The value was 0.28 (0.02) mg per Live Termite.

And the “Normalized Avg. Totals” value [15]?
Its value is 0.67.

What about the “Average Feeding in mg per Live Termite (std. err.) days 1-8” value [16] of the same substance?
The value was 0.21 (0.03) mg per Live Termite.

And the “Average Feeding in mg per Live Termite (std. err.) days 9-16” value [16]?
The value was 0.19 (0.07) mg per Live Termite.

And the “Average Feeding in mg per Live Termite (std. err.) days 17-24” value [16]?
The value was 0.27 (0.05) mg per Live Termite.

And the “Normalized Avg. Totals” value [16]?
The value was 0.60.

What about the “Effect on feeding (cumulative percent of untreated controls through 24 days)” value (across tested concentrations 0.1-75 mM, FIGS. 7A-7C, 8A-8B) of the same substance?
The value was “did not stimulate consumption at any concentration; also recorded: little stimulatory effects at any concentration”.

What about the “mortality, field colony termites” value (field colony, FIG. 13) of the same substance?
The value was “approximately 30%”.

And the maximum mortality (highest FMG concentration, FIG. 7D (2 colonies averaged))?
Its maximum mortality is “approximately 20%”.

What about the maximum mortality (highest concentration tested, FIG. 10A) of the same substance?
The maximum mortality was 10%.

What about the “mortality, lab colony termites” value (lab colony, FIG. 13) of the same substance?
Its value is 2-3%.
